# According to patent publication US20050074879A1, “Antisense oligonucleotide modulation of STAT3 expression” (priority 2000, published 2005):
# Oligonucleotides are written 5' to 3', each unit as a sugar letter and its base; * is a phosphorothioate linkage, no mark a phosphodiester; rarer units and linkages stand in square brackets, end groups in braces. Plain capitals give the bases only. e = 2'-O-(2-methoxyethyl) (MOE); [5mC] = 5-methylcytosine; d = 2'-deoxy (DNA)
# Key:
# [1] = tested on: Mouse STAT3 mRNA; test: Inhibition of mouse STAT3 mRNA expression in BCL1 cells (electroporation; RNase protection/Northern blot); assay type: cell-based; parameters: % mRNA INHIBITION: dose or concentration left out as unconfirmed; settings: BCL1 cells electroporated with oligonucleotide, RNA collected 24 hours later; for % mRNA EXPRESSION: control 100%
# Procedure: The B lymphoma cell line, BCL1 was obtained from ATCC (Rockville, Md.). BCL1 cells were cultured in RPMI 1640 medium.
# BCL1 cells (5×10^6 cells in PBS) were transfected with oligonucleotides by electroporation, at 200V, […]. using a BTX Electro Cell Manipulator 600 (Genetronics, San Diego, Calif.). For an initial screen, BCL1 were electroporated with […] oligonucleotide and RNA collected 24 hours later. Controls without oligonucleotide were subjected to the same electroporation conditions.
# Total cellular RNA was isolated using the RNEASY7 kit (Qiagen, Santa Clarita, Calif.). RNAse protection experiments were conducted using RIBOQUANT™ kits and template sets according to the manufacturer's instructions (Pharmingen, San Diego, Calif.). Northern blotting was performed as described in Chiang, M-Y. et al. (J. Biol. Chem., 1991, 266, 18162-18171), using a rat cDNA probe prepared by Xho I/Sal I restriction digest of psvsport-1 plasmid (ATCC, Rockville, Md.). mRNA levels were quantitated using a PhosphorImager (Molecular Dynamics, Sunnyvale, Calif.).
# [2] = tested on: Human STAT3 mRNA; test: Inhibition of human STAT3 mRNA expression in U266 cells, Northern blot; assay type: cell-based; settings: for % mRNA INHIBITION / % mRNA EXPRESSION: U266 cells, 2.5 μM oligonucleotide, electroporation, 24 hours; for % mRNA EXPRESSION: percent of control
# Procedure: U266 human myeloma cell lines (originally obtained from American Type Culture Collection) were maintained in RPMI 1640 medium supplemented with 10% fetal calf serum. Cells (15×10^6 cells in PBS) were transfected with oligonucleotides at 200V with a single 6-millisecond pulse using a BTX Electro Square Porator T820 (Genetronics, San Diego Calif.). The cells were incubated for 24 hours before RNA extraction.
# Total cellular RNA was isolated using the Rneasy kit (Qiagen, Santa Clarita, Calif.). Northern blotting was perfomed on 15 μg of RNA using a cDNA probe prepared from MB-MDA 468 RNA by standard RT-PCR followed by a nested primer reaction. Signals were quantitated using a Molecular Dynamics Phosphorimager.
# In order to examine the importance of STAT3 expression in multiple myeloma cells, a series of 20mer STAT3 antisense oligonucleotides were designed and synthesized, using phosphorothioate chemistry and incorporating 2′-O-methoxyethyl modifications to improve hybridization affinity and nuclease resistance.
Substance,% mRNA INHIBITION [1] [%],% mRNA EXPRESSION [1] [%],% mRNA EXPRESSION [2] [%],other results
17136 (antisense eG*eT*eT*e[5mC]*e[5mC]*dA*dC*dT*dG*dA*dG*dC*dC*dA*dT*e[5mC]*e[5mC]*eT*eG*e[5mC]) [compound 17136],25,75,–,–
17137 (antisense eT*eT*e[5mC]*eA*eG*dG*dT*dA*dG*dC*dG*dT*dG*dT*dG*eT*e[5mC]*e[5mC]*eA*eG) [compound 17137],25,75,–,–
17138 (antisense eA*eT*eG*eT*eG*dA*dC*dT*dC*dT*dT*dT*dG*dC*dT*eG*eG*e[5mC]*eT*eG) [compound 17138],63,37,–,–
17139 (antisense e[5mC]*e[5mC]*eA*eA*eG*dA*dG*dA*dT*dT*dA*dT*dG*dA*dA*eA*e[5mC]*eA*e[5mC]*e[5mC]) [compound 17139],59,41,–,–
17140 (antisense eG*e[5mC]*eT*e[5mC]*e[5mC]*dA*dA*dC*dA*dT*dC*dT*dG*dC*dT*eG*e[5mC]*eT*eT*e[5mC]) [compound 17140],60,40,–,–
17141 (antisense eG*e[5mC]*eT*e[5mC]*eT*dT*dC*dA*dT*dC*dA*dG*dT*dC*dA*eG*eT*eG*eT*e[5mC]) [compound 17141],38,62,–,–
17142 (antisense eA*eT*e[5mC]*eT*eG*dA*dC*dA*dC*dC*dC*dT*dG*dA*dG*eT*eA*eG*eT*eT) [compound 17142],30,70,–,–
17143 (antisense eG*e[5mC]*e[5mC]*eA*eG*dA*dC*dC*dC*dA*dG*dA*dA*dG*dG*eA*eG*eA*eA*eG) [compound 17143],58,42,–,–
17144 (antisense e[5mC]*eG*e[5mC]*eT*e[5mC]*dC*dT*dT*dG*dC*dT*dG*dA*dT*dG*eA*eA*eA*e[5mC]*e[5mC]) [compound 17144],45,55,–,–
17145 (antisense eA*eA*e[5mC]*eT*eT*dG*dG*dT*dC*dT*dT*dC*dA*dG*dG*eT*eA*e[5mC]*eG*eG) [compound 17145],11,89,–,–
17146 (antisense eA*eT*e[5mC]*eA*eA*dT*dG*dA*dA*dT*dC*dT*dA*dA*dA*eG*eT*eG*e[5mC]*eG) [compound 17146],9,91,–,–
17147 (antisense eT*e[5mC]*eA*eG*e[5mC]*dA*dC*dC*dT*dT*dC*dA*dC*dC*dG*eT*eT*eA*eT*eT) [compound 17147],30,70,–,–
"17148 (antisense ACTCAAACTGCCCTCCTGCT; listed as DNA, chemistry not fully specified) [compound 17148]",31,69,95.1,Percent inhibition of STAT3 expression ([2]; Oligo concentration 2.5 μM): 8%; Percent inhibition of STAT3 expression ([2]; Oligo concentration 5 μM): 54%; Percent inhibition of STAT3 expression ([2]; Oligo concentration 10 μM): 60%; % mRNA INHIBITION [2]: 4.9%
17149 (antisense eG*eG*eT*eT*eT*dC*dA*dG*dC*dT*dC*dC*dT*dC*dA*e[5mC]*eA*eT*eG*eG) [compound 17149],30,70,–,–
17150 (antisense eT*eA*eA*eA*eA*dA*dA*dA*dA*dA*dA*dA*dT*dC*dT*eG*eG*eA*eA*e[5mC]) [compound 17150],5,95,–,–
17151 (antisense eA*eA*eG*eA*eT*dA*dG*dC*dA*dG*dA*dA*dG*dT*dA*eG*eG*eA*eA*eA) [compound 17151],8,92,–,–
17153 (antisense eA*eT*e[5mC]*eA*e[5mC]*dC*dC*dA*dC*dA*dC*dT*dC*dA*dC*eT*e[5mC]*eA*eT*eT) [compound 17153],56,44,–,–
17154 (antisense e[5mC]*e[5mC]*eT*eT*eT*dG*dC*dC*dT*dC*dC*dC*dT*dT*dC*eT*eG*e[5mC]*eT*e[5mC]) [compound 17154],20,80,–,–

Substance,% mRNA INHIBITION [1] [%],% mRNA EXPRESSION [1] [%],% mRNA EXPRESSION [2] [%],other results
17155 (antisense eT*eG*eA*eA*eA*dA*dA*dG*dG*dA*dG*dG*dG*dC*dA*eG*eG*e[5mC]*eG*eG) [compound 17155],22,78,–,–
17156 (antisense e[5mC]*eA*e[5mC]*e[5mC]*eA*dG*dG*dA*dG*dG*dC*dA*dC*dT*dT*eG*eT*e[5mC]*eT*eA) [compound 17156],60,40,–,–
17157 (antisense eA*eA*e[5mC]*e[5mC]*eT*dC*dC*dT*dG*dG*dG*dC*dT*dT*dA*eG*eT*e[5mC]*e[5mC]*eT) [compound 17157],47,53,–,–
113170 (eA*eG*e[5mC]*eT*eG*dA*dT*dT*d[5mC]*d[5mC]*dA*dT*dT*dG*dG*eG*e[5mC]*e[5mC]*eA*eT) [compound 113170],–,–,89.6,% mRNA INHIBITION [2]: 10.4%
113171 (e[5mC]*e[5mC]*eA*eG*eG*dA*dG*dA*dT*dT*dA*dT*dG*dA*dA*eA*e[5mC]*eA*e[5mC]*e[5mC]) [compound 113171],–,–,110.2,–
113172 (antisense eA*e[5mC]*e[5mC]*eG*eT*dG*dT*dG*dT*d[5mC]*dA*dA*dG*d[5mC]*dT*eG*e[5mC]*eT*eG*eT) [compound 113172],–,–,96.1,% mRNA INHIBITION [2]: 3.9%
113173 (antisense e[5mC]*e[5mC]*eA*eT*eT*dG*dG*dG*dA*dA*dG*d[5mC]*dT*dG*dT*e[5mC]*eA*e[5mC]*eT*eG) [compound 113173],–,–,119,–
113175 (antisense eG*e[5mC]*eG*eG*e[5mC]*dT*dA*dT*dA*d[5mC]*dT*dG*d[5mC]*dT*dG*eG*eT*e[5mC]*eA*eA) [compound 113175],–,–,75.8,% mRNA INHIBITION [2]: 24.2%
113178 (antisense eT*eG*eA*eT*eT*d[5mC]*dT*dT*d[5mC]*d[5mC]*d[5mC]*dA*d[5mC]*dA*dG*eG*e[5mC]*eA*e[5mC]*e[5mC]) [compound 113178],–,–,143.9,–
113181 (antisense e[5mC]*e[5mC]*e[5mC]*eG*e[5mC]*d[5mC]*dA*dG*d[5mC]*dT*d[5mC]*dA*d[5mC]*dT*d[5mC]*eA*e[5mC]*eG*eA*eT) [compound 113181],–,–,105.4,–
113184 (antisense e[5mC]*eG*e[5mC]*e[5mC]*eT*d[5mC]*dT*dT*d[5mC]*d[5mC]*dA*dG*dT*d[5mC]*dA*eG*e[5mC]*e[5mC]*eA*eG) [compound 113184],–,–,104.3,–
113187 (antisense e[5mC]*e[5mC]*eG*e[5mC]*eT*d[5mC]*d[5mC]*dA*d[5mC]*d[5mC]*dA*d[5mC]*dA*dA*dA*eG*eG*e[5mC]*eA*e[5mC]) [compound 113187],–,–,55.9,Percent inhibition of STAT3 expression ([2]; Oligo concentration 2.5 μM): 44%; Percent inhibition of STAT3 expression ([2]; Oligo concentration 5 μM): 56%; Percent inhibition of STAT3 expression ([2]; Oligo concentration 10 μM): 75%; % mRNA INHIBITION [2]: 44.1%
113189 (antisense eT*eT*eG*eT*eG*dT*dT*dT*dG*dT*dG*d[5mC]*d[5mC]*d[5mC]*dA*eG*eA*eA*eT*eG) [compound 113189],–,–,163.9,–
113207 (antisense eA*eT*e[5mC]*eA*e[5mC]*d[5mC]*d[5mC]*dA*d[5mC]*dA*dT*dT*d[5mC]*dA*d[5mC]*eT*e[5mC]*eA*eT*eT) [compound 113207],–,–,123.6,–
113209 (antisense eA*eA*eA*eA*eG*dT*dG*d[5mC]*d[5mC]*d[5mC]*dA*dG*dA*dT*dT*eG*e[5mC]*eT*e[5mC]*eA) [compound 113209],–,–,71.4,Percent inhibition of STAT3 expression ([2]; Oligo concentration 2.5 μM): 43%; Percent inhibition of STAT3 expression ([2]; Oligo concentration 5 μM): 54%; Percent inhibition of STAT3 expression ([2]; Oligo concentration 10 μM): 73%; % mRNA INHIBITION [2]: 28.6%
113210 (antisense eT*eA*eA*eA*eA*dG*dT*dG*d[5mC]*d[5mC]*d[5mC]*dA*dG*dA*dT*eT*eG*e[5mC]*eT*e[5mC]) [compound 113210],–,–,72.2,Percent inhibition of STAT3 expression ([2]; Oligo concentration 2.5 μM): 36%; Percent inhibition of STAT3 expression ([2]; Oligo concentration 5 μM): 50%; Percent inhibition of STAT3 expression ([2]; Oligo concentration 10 μM): 76%; % mRNA INHIBITION [2]: 27.8%
113211 (antisense eA*eA*eG*e[5mC]*eA*dG*dA*dT*d[5mC]*dA*d[5mC]*d[5mC]*d[5mC]*dA*d[5mC]*eA*eT*eT*e[5mC]*eA) [compound 113211],–,–,116.5,–
